Results as given in the METLIN SMRT retention time set (Domingo-Almenara et al. 2019).

Assay: gradient 5% acetonitrile 3 min, to 50% in 2 min, to 85% in 15 min, held 3 min, 100 µL/min
Conditions: column: Zorbax Extend-C18 2.1 x 50 mm; eluents: water / acetonitrile, 0.1% formic acid
In short: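 Using water and acetonitrile that each contained 0.1% formic acid, mixtures of ~100 pure standards were separated at 100 μL/min on a Zorbax Extend-C18 column (2.1 × 50 mm, 1.8 μm). The HPLC fed a quadrupole time-of-flight mass spectrometer working in positive and negative ionization mode, with dead and dwell volumes of 40 μL and 900 μL. Data were acquired over 3 months. Retention time was read from computationally picked adduct peaks after manual inspection of each.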

## COc1ccc(OCc2nc(-c3ccc4c(c3)nc(C)c(=O)n4C3CCCC3)no2)cc1
  RP-LC retention time: 1170 s

## COc1cc(OC)cc(C(=O)N2C[C@@H]3C[C@H]2C[C@@H]3NC(=O)c2ccccc2)c1
  RP-LC retention time: 732 s

## Fc1ccccc1-c1nc2ccccc2[nH]1
  RP-LC retention time: 592 s

## O=C(NCCc1c[nH]c2ccc(F)cc12)c1ccc(F)cc1-n1cnnn1
  RP-LC retention time: 756 s

## CCOc1ccc(NC(=O)N(Cc2ccc3c(c2)OCO3)C2CCN(CC)CC2)cc1
  RP-LC retention time: 661 s

## CCCNc1cc(N2CCC(CCC(=O)N(C)CCC)CC2)ncn1
  RP-LC retention time: 589 s

## CN1CCN(CCCNC(=O)CN2C(=O)C3CCCCN3c3ccc(C(=O)N4CCCC4)cc32)CC1 (centres undefined)
  RP-LC retention time: 579 s

## C[C@H]1CN(C(=O)c2c[nH]c3ccccc23)C[C@@H]1c1nc(-c2cccnc2)no1
  RP-LC retention time: 711 s

## CC(C)c1noc(-c2ccn3c(CC(=O)NC4CCCCC4)nnc3c2)n1
  RP-LC retention time: 760 s

## O=C1C(Nc2ccccc2)=CC(=O)c2ncccc21
  RP-LC retention time: 734 s

## O=C(Cc1ccsc1)NCCn1c(=O)n(Cc2ccc(F)cc2)c2cccnc21
  RP-LC retention time: 781 s

## COc1ccc(OC)c(NC(=O)c2sc(-c3cn(C(C)C)c4ncccc34)nc2C)c1
  RP-LC retention time: 1030 s

## CCN1c2cc(C)ccc2-n2cccc2C12CCN(C(=O)NCC(=O)OC)CC2
  RP-LC retention time: 895 s

## CN(C)[C@@H]1CN(C(=O)COc2ccc(Cl)cc2)C[C@H]1CO
  RP-LC retention time: 598 s

## Cc1ccc(C)c(-c2cn3ccn(-c4ccc(F)cc4)c(=O)c3n2)c1
  RP-LC retention time: 895 s

## COc1ccccc1CNC(=O)CCc1csc(NC(=O)c2ccc(F)cc2)n1
  RP-LC retention time: 792 s

## Cc1ccsc1C(=O)NCC(=O)N1CCCc2ccccc21
  RP-LC retention time: 832 s

## CCCNC(=O)c1cnn(-c2cc(-c3nc(C(C)(C)C)no3)ccn2)c1C
  RP-LC retention time: 961 s

## Cc1cc(N2CCC(NC(=O)Nc3ccccc3Cl)C2=O)ccc1F (centres undefined)
  RP-LC retention time: 878 s

## CCN1C(=O)c2ccccc2Oc2ccc(C(=O)NCCC3=CCCCC3)cc21
  RP-LC retention time: 639 s

## CCOc1cc(=O)n2c(c1C(=O)Nc1cc(Cl)c(OC)cc1OC)CCCC2
  RP-LC retention time: 758 s

## O=C1C[C@@H]2OCC=C3C[N+]4([O-])CC[C@]56c7ccccc7N1[C@H]5[C@H]2[C@H]3C[C@@H]64 (some centres undefined)
  RP-LC retention time: 639 s

## CCC(=O)N1CCc2cc(C(=O)N(C)C)ccc21
  RP-LC retention time: 673 s

## COCCNC(=O)c1ccc2c(c1)N(Cc1ccc(F)cc1)C(=O)CO2
  RP-LC retention time: 717 s

## Cc1nc(N2CCOCC2)c2c(C(=O)Nc3ccc(Br)cc3C)c(C)oc2n1
  RP-LC retention time: 909 s

## CCn1cc(CCNC(=O)c2ccc(OC)cc2)c2cccnc21
  RP-LC retention time: 675 s

## Cc1ccccc1CNC(=O)CS(=O)Cc1cnn(-c2ccccc2)c1-n1cccc1 (centres undefined)
  RP-LC retention time: 875 s

## CC(CCc1ccco1)NC(=O)C1CCc2nc(N3CCCCC3)ncc2C1 (centres undefined)
  RP-LC retention time: 777 s

## COc1cc(Cl)ccc1C(=O)N1CCc2nc[nH]c2C1
  RP-LC retention time: 593 s

## CC1CCC(C(=O)Nc2ccc(-c3nnc4n3CCCC4)cc2)CC1 (centres undefined)
  RP-LC retention time: 734 s

## Cc1cc(Cl)ccc1NC(=O)C1CCCN(S(=O)(=O)c2c[nH]c(C(=O)N3CCCC3)c2)C1 (centres undefined)
  RP-LC retention time: 852 s

## Cc1ccc2c(c1)C(O)(CC(=O)c1ccc(NC(=O)C(C)(C)C)cc1)C(=O)N2 (centres undefined)
  RP-LC retention time: 747 s

## CC1CCN(C(=O)CN2C(=O)CCCc3cc(S(=O)(=O)N4CCCCC4)ccc32)CC1
  RP-LC retention time: 901 s

## O=C(NCCC1=CCCCC1)C1CCN(c2ncccc2-c2nc(-c3ccc(Cl)cc3)no2)CC1
  RP-LC retention time: 1330 s

## CCOc1ccc(C2c3[nH]c4ccccc4c3CCN2C(=O)c2ccnn2C)cc1 (centres undefined)
  RP-LC retention time: 678 s

## CCC(=O)N1CCN(c2nc3c(s2)CC(C(=O)Nc2ccc(C)cc2Cl)CC3)CC1 (centres undefined)
  RP-LC retention time: 607 s

## COCCn1ncc(N2CCC(C(=O)NCc3ccc(C)o3)C2)cc1=O (centres undefined)
  RP-LC retention time: 650 s

## COCCNC(=O)C(C)n1nc(C)c2c(C)n(-c3ccccc3)nc2c1=O (centres undefined)
  RP-LC retention time: 695 s

## CC(C)Oc1ccc(CN2C(=O)C3(CCOCC3)CC2c2nnnn2C(C)(C)C)cc1 (centres undefined)
  RP-LC retention time: 875 s

## COCCC1(NC(=O)c2ocnc2C)CCN(S(C)(=O)=O)CC1
  RP-LC retention time: 614 s

## O=C(NCc1ccccc1)C1CCN(c2cnc3nccnc3c2)CC1
  RP-LC retention time: 662 s

## O=C(Nc1cccc(F)c1)C1CCN(S(=O)(=O)c2cc(-c3noc(C4CC4)n3)cs2)CC1
  RP-LC retention time: 1040 s

## Cc1cc(-c2nc(C3CC3)no2)c(C)n1CC(=O)Nc1ccc(Cl)cc1
  RP-LC retention time: 1020 s

## COc1cccc(-c2noc(Cc3nnc(-c4ccc(C)c(C)c4)o3)n2)c1OC
  RP-LC retention time: 1060 s

## CCCN1C(=O)CN(C2CCCCC2)C(=O)C1c1ccc(OC)c(OC)c1 (centres undefined)
  RP-LC retention time: 777 s

## CN(C)c1ccc(CNS(=O)(=O)c2cc(-c3nc(C(C)(C)C)cs3)cs2)cc1
  RP-LC retention time: 1100 s

## CCn1cc(-c2nc(C)c(C(=O)N3CCc4ccccc4C3)s2)c2cccnc21
  RP-LC retention time: 987 s

## COCCn1cc(CC(=O)N2CCN(c3ccccn3)CC2)c2cccnc21
  RP-LC retention time: 569 s

## COc1ccc2[nH]cc(CCN3CC(C(=O)Nc4cccc(C)c4C)CC3=O)c2c1 (centres undefined)
  RP-LC retention time: 771 s

## Cc1ccc(-n2nc(C)c3sc(N4CCCC(C(=O)NCc5ccc(F)cc5Cl)C4)nc32)cc1 (centres undefined)
  RP-LC retention time: 1220 s

## CNC(=O)c1cc(N2CCCC2)nc2c(C)cccc12
  RP-LC retention time: 567 s

## COc1ccccc1-c1nc(Cc2noc(-c3ccccc3)n2)c(C)o1
  RP-LC retention time: 1040 s

## COc1ccc2[nH]c3c(c2c1)CCNC31CCN(Cc2ccc(F)c(F)c2)CC1
  RP-LC retention time: 587 s

## O=C(c1ccc2cc[nH]c2c1)N1CCCN(c2cc(-c3ccc(Cl)cc3)[nH]n2)CC1
  RP-LC retention time: 770 s

## CCCn1cc(CCNS(=O)(=O)c2ccccc2C)c2cccnc21
  RP-LC retention time: 830 s

## O=C(NCC1(CO)CC1)c1ccccc1F
  RP-LC retention time: 599 s

## O=C(Cc1cn2cc(Br)ccc2n1)Nc1ccc2c(c1)OCCO2
  RP-LC retention time: 608 s

## O=C(Cn1c(=O)c2cc(C3CC3)nn2c2ncccc21)Nc1cccc(Cl)c1
  RP-LC retention time: 848 s

## O=c1onc2cnc3ccccc3n12
  RP-LC retention time: 822 s

## COc1ccc(N2C(=O)CCS2(=O)=O)cc1S(=O)(=O)N1CCC(C(N)=O)CC1
  RP-LC retention time: 612 s

## CCOc1ccc(Cl)cc1S(=O)(=O)N1CCC(C(=O)NCCCO)CC1
  RP-LC retention time: 688 s

## CCOC(=O)C1CCN(C(=O)C2CCN(S(=O)(=O)c3cc(Cl)ccc3OCC)CC2)CC1
  RP-LC retention time: 936 s

## CCCC(=O)Nc1ccc2nc(N3CCN(c4cccc(OC)c4)CC3)cc(C(=O)O)c2c1
  RP-LC retention time: 647 s

## O=C(C1COc2ccccc2O1)N(CCc1cccs1)Cc1ccco1 (centres undefined)
  RP-LC retention time: 1020 s

## COc1ccc(NC(=O)c2cc(C(C)C)n(C3CCS(=O)(=O)C3)n2)cc1Cl (centres undefined)
  RP-LC retention time: 931 s

## Cn1ncc2c(N3CCN(c4ccccc4F)CC3)ncnc21
  RP-LC retention time: 858 s

## O=C(c1sc2ncccc2c1-n1cccc1)N1CCN(c2ncccn2)CC1
  RP-LC retention time: 866 s

## Fc1ccc(OCc2nc(C3CCCN3)no2)cc1 (centres undefined)
  RP-LC retention time: 564 s

## Cc1cc(C)cc(NC(=O)c2cn3c(n2)CCCC3)c1
  RP-LC retention time: 644 s

## Cc1cccc(OCc2nc(-c3ccc(NS(=O)(=O)c4cccs4)cc3)no2)c1
  RP-LC retention time: 1090 s

## Cc1cnc(C2CC2)n1CCNS(=O)(=O)c1ccccc1C(F)(F)F
  RP-LC retention time: 569 s

## CCOc1ccc(NC(=O)NCC2CCOCC2)cc1
  RP-LC retention time: 685 s

## COc1ccc(-c2cc(C(=O)Nc3ccccc3F)nn2C2CCS(=O)(=O)C2)cc1 (centres undefined)
  RP-LC retention time: 928 s

## CCCC(CCC)C(=O)NCCc1c[nH]c2cc(OC)ccc12
  RP-LC retention time: 886 s

## COc1ccc(NC(=O)Cn2nc(N3CCCC(C)C3)c3ccccc3c2=O)cc1OC (centres undefined)
  RP-LC retention time: 997 s

## O=C(CSc1ccc(-c2ccccn2)nn1)Nc1ccc(F)c(F)c1
  RP-LC retention time: 789 s

## CC(C)NC(=O)c1ccc(OCC2CCN(C(=O)c3ccc(N(C)C)cc3)CC2)cc1
  RP-LC retention time: 816 s

## CC(CCc1ccccc1)NC(=O)C(=O)NC1CCCC1 (centres undefined)
  RP-LC retention time: 925 s

## CC1CCN(C(=O)c2ccc3c(=O)n4c(nc3c2)CCCC4)CC1
  RP-LC retention time: 707 s

## O=c1c2sccc2n(Cc2nc(-c3cccc(C(F)(F)F)c3)no2)c(=O)n1-c1ccc(F)cc1
  RP-LC retention time: 1070 s

## CCN(CCNC(=O)C12CCCC=C1N(Cc1ccccc1)C(=O)CC2)Cc1ccccc1 (centres undefined)
  RP-LC retention time: 603 s

## COc1cccc(NC(=O)C2CCN(S(=O)(=O)c3ccc4c(c3)CCCC(=O)N4)CC2)c1
  RP-LC retention time: 755 s

## CCNC(=O)C1CCN(Cc2cc3ccccc3n2Cc2ccc(C)cc2)CC1
  RP-LC retention time: 724 s

## Cc1cc(C)cc(N2CCC(NC(=O)c3sccc3C)C2=O)c1 (centres undefined)
  RP-LC retention time: 916 s

## CC(=O)N(C1CCOCC1)C1CCN(S(=O)(=O)c2cc(F)ccc2C)CC1
  RP-LC retention time: 792 s

## Cc1ccc(C)c2sc(NC(=O)c3cccc(N4C(=O)CCC4=O)c3)nc12
  RP-LC retention time: 852 s

## O=C(Nc1cccc(OCc2nnc(-c3ccc(Cl)cc3)o2)c1)c1cnccn1
  RP-LC retention time: 946 s

## CCc1cccc(C)c1NC(=O)Cn1cnc2nc(N3CCCC(C(=O)NC4CC4)C3)sc2c1=O (centres undefined)
  RP-LC retention time: 694 s

## Cc1ccc(N2C(=O)C3N=NN(Cc4nc(-c5ccc(Br)cc5)no4)C3C2=O)cc1 (centres undefined)
  RP-LC retention time: 1070 s
